Assay results reported in US20220288057A1, “CONJOINT THERAPY FOR TREATING SEIZURE DISORDERS” (XENON PHARMACEUTICALS INC., priority 2021, published 2022).
Values joined by “and” are separate entries in the source; they are usually repeats but may differ in a detail not shown here. Equal values may be shown once. Read-outs that look alike come from different tables or passages of the source.

Tests used:
[1] = Plasma and brain concentrations in 6 Hz studies (LC-MS/MS); type: in vivo, mouse
Description: Sample Collection and Preparation: Mice were anesthetized by isoflurane inhalation (TECH-018) until they reached a surgical plane of anesthesia. Then a syringe (1 mL syringe with a 22 gauge needle) was inserted under the sternum into the heart (TECH-031). Approximately 0.5 mL of blood was collected, deposited into a K2EDTA tube, and stored on ice. Animals were then euthanized by cervical dislocation (TECH-018). Brains were removed, placed into a pre-weighed vial, and snap frozen on dry ice. At the end of the sample collection, blood was centrifuged at 4000 rpm for 10 minutes at 4° C., and the plasma pipetted into a labeled tube. All samples were stored in a −80° C. freezer until bioanalysis (8 days after sample collection for Studies 3A and 3B; 20 days after sample collection for Study 3C).
Plasma and Tissue Sample Analysis: Bead mill polypropylene tubes containing weighed brain tissues were thawed at room temperature and 3 mL of homogenization solvent (water:acetonitrile (1:1, v:v)) was added. The tubes were placed in the Bead Mill Homogenizer (Bead Ruptor Elite Model, Omni International) and shaken at a velocity of 3.70 m/s for a single cycle lasting 30 seconds. The homogenized tube was centrifuged at 4000 rpm for 20 minutes, the supernatant was transferred to a 1.5 mL Eppendorf tube, and stored frozen at −80° C. until analysis. All samples including plasma and brain homogenate extracts (including calibration and quality control (QC) samples prepared in K2EDTA rat plasma), were extracted by protein precipitation. […] The samples in the 1.5 mL tubes were vortex mixed and then centrifuged for 20 minutes at 13,000 rpm. Fifty microliters of the supernatant was mixed with 150 μL of water/acetonitrile (1:1) in a 96 well plate which was centrifuged post mixing for 20 minutes at 4000 rpm, and was then ready for analysis by liquid chromatography tandem mass spectrometry (LC-MS/MS).
Samples were analyzed by a research-grade LC-MS/MS method as follows: […]

[2] = tested on: CF-1 mice; experiment: Observation for clinical signs in 6 Hz studies; type: in vivo, mouse; details: Compound A 8 mg/kg PO, Study 3A
Description: Any qualitative changes from normal behavior were recorded.

[3] = in vivo; details: mouse
[4] = Plasma and brain concentrations after MES testing (UHPLC-ESI-MS/MS); details: CF-1, mouse, in vivo, po;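 also: brain and plasma were sampled from mice right after the efficacy test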

## Cc1cc(N2CCc3cc(F)ccc3C2)cc(C)c1NC(=O)CC(C)(C)C [Compound A, N-[4-(6-fluoro-3,4-dihydro-1H-isoquinolin-2-yl)-2,6-dimethylphenyl]-3,3-dimethylbutanamide]
[1]; 1 hour post dosing
  fold higher brain concentration of Compound A in Study 3C compared to Study 3B: 11 fold
  fold higher plasma concentration of Compound A in Study 3C compared to Study 3B: 12 fold
[1]; CF-1, mouse, brain, po, 1 mg/kg, Study 3A, Compound A 1 mg/kg PO, 1 h, read-out: Brain
  concentration at 1 h: 90 nM
[1]; CF-1, mouse, brain, po, 3 mg/kg, Study 3A, Compound A 3 mg/kg PO, 1 h, read-out: Brain
  concentration at 1 h: 260 nM
[1]; CF-1, mouse, brain, po, 4 mg/kg, Study 3B, Compound A 4 mg/kg PO 1 h alone, read-out: Brain
  concentration at 1 h: 30 ± 20 nM
[1]; CF-1, mouse, brain, po, 4 mg/kg, Study 3C, Compound A 4 mg/kg PO 1 h alone, read-out: Brain
  concentration at 1 h: 410 ± 230 nM
[1]; CF-1, mouse, brain, po, 5 mg/kg, Study 3A, Compound A 5 mg/kg PO, 1 h, read-out: Brain
  concentration at 1 h: 290 nM
[1]; CF-1, mouse, brain, po, 8 mg/kg, Study 3A, Compound A 8 mg/kg PO, 1 h, read-out: Brain
  concentration at 1 h: 700 ± 410 nM
[1]; CF-1, mouse, plasma, po, 1 mg/kg, Study 3A, Compound A 1 mg/kg PO, 1 h, read-out: Plasma
  concentration at 1 h: 40 nM
[1]; CF-1, mouse, plasma, po, 3 mg/kg, Study 3A, Compound A 3 mg/kg PO, 1 h, read-out: Plasma
  concentration at 1 h: 150 nM
[1]; CF-1, mouse, plasma, po, 4 mg/kg, Study 3B, Compound A 4 mg/kg PO 1 h alone, read-out: Plasma
  concentration at 1 h: 14 ± 9 nM
[1]; CF-1, mouse, plasma, po, 4 mg/kg, Study 3C, Compound A 4 mg/kg PO 1 h alone, read-out: Plasma
  concentration at 1 h: 167 ± 89.7 nM
[1]; CF-1, mouse, plasma, po, 5 mg/kg, Study 3A, Compound A 5 mg/kg PO, 1 h, read-out: Plasma
  concentration at 1 h: 180 nM
[1]; CF-1, mouse, plasma, po, 8 mg/kg, Study 3A, Compound A 8 mg/kg PO, 1 h, read-out: Plasma
  concentration at 1 h: 470 ± 290 nM
[1]; Compound A 4 mg/kg PO, 1 h
  fold higher concentrations of Compound A in plasma and brain in Study 3C than in Study 3B: more than 10 fold
[1]; Study 3A, Compound A 8 mg/kg PO, 1 h, 8 mg/kg
  Plasma: 0.47 µM
[1]; Study 3A, Compound A 8 mg/kg PO, 1 h, 8 mg/kg, read-out: Brain
  concentration at 1 h: 700 nM
[1]; Study 3B, Compound A 4 mg/kg PO 1 h alone, 4 mg/kg
  Plasma: 0.01 ± 0.01 µM
[1]; Study 3B, Compound A 4 mg/kg PO 1 h alone, listed as Cmpd A, 4 mg/kg
  Plasma: 0.01 µM
[1]; Study 3B, Compound A 4 mg/kg PO 1 h alone, listed as Cmpd A, 4 mg/kg, read-out: Brain
  concentration at 1 h: 30 nM
[1]; Study 3C, Compound A 4 mg/kg PO 1 h alone, 4 mg/kg
  Plasma: 0.17 µM
[1]; Study 3C, Compound A 4 mg/kg PO 1 h alone, 4 mg/kg, read-out: Brain
  concentration at 1 h: 410 nM
[1]; mouse, brain, oral, Studies 3B+3C combined, analyte Compound A, 4 mg/kg PO + Levetiracetam 300 mg/kg IP, read-out: Brain
  concentration at 1 h: 210 nM
[1]; mouse, brain, oral, Study 3B, analyte Compound A, 4 mg/kg PO + Levetiracetam 300 mg/kg IP, read-out: Brain
  concentration at 1 h: 40 nM
[1]; mouse, brain, oral, Study 3C, analyte Compound A, 4 mg/kg PO + Levetiracetam 300 mg/kg IP, read-out: Brain
  concentration at 1 h: 383 nM
[1]; mouse, brain, po, 4 mg/kg, Studies 3B+3C combined, Compound A 4 mg/kg PO 1 h alone, read-out: Brain
  concentration at 1 h: 220 nM
[1]; mouse, brain, po, 4 mg/kg, Study 3B, Compound A 4 mg/kg PO 1 h alone, read-out: Brain
  concentration at 1 h: 30 ± 20 nM
[1]; mouse, brain, po, 4 mg/kg, Study 3C, Compound A 4 mg/kg PO 1 h alone, read-out: Brain
  concentration at 1 h: 410 ± 230 nM
[1]; mouse, plasma, oral, Studies 3B+3C combined, analyte Compound A, 4 mg/kg PO + Levetiracetam 300 mg/kg IP, read-out: Plasma
  concentration at 1 h: 90 nM
[1]; mouse, plasma, oral, Study 3B, analyte Compound A, 4 mg/kg PO + Levetiracetam 300 mg/kg IP, read-out: Plasma
  concentration at 1 h: 20 nM
[1]; mouse, plasma, oral, Study 3C, analyte Compound A, 4 mg/kg PO + Levetiracetam 300 mg/kg IP, read-out: Plasma
  concentration at 1 h: 170 nM
[1]; mouse, plasma, po, 4 mg/kg, Studies 3B+3C combined, Compound A 4 mg/kg PO 1 h alone, read-out: Plasma
  concentration at 1 h: 100 nM
[1]; mouse, plasma, po, 4 mg/kg, Study 3B, Compound A 4 mg/kg PO 1 h alone, read-out: Plasma
  concentration at 1 h: 14 ± 9 nM
[1]; mouse, plasma, po, 4 mg/kg, Study 3C, Compound A 4 mg/kg PO 1 h alone, read-out: Plasma
  concentration at 1 h: 170 ± 90 nM
[2]
  brain concentration of the one animal that showed tremor and was cold to the touch: 1650 nM
  plasma concentration of the one animal that showed tremor and was cold to the touch: 1160 nM
[3]
  concentration at 2 h: 30 nM and 11.1 ng/mL
[4]; 1 mg/kg, Concentration Brain, Compound A 1 mg/kg PO single dose, tissue collection 0.5 hr
  concentration at 0.5 h: 270 nM
[4]; 1 mg/kg, Concentration Brain, Compound A 1 mg/kg PO single dose, tissue collection 2 hr
  concentration at 2 h: 190 nM
[4]; 1 mg/kg, Concentration Brain, Compound A 1 mg/kg PO, 0.5 hr
  concentration at 0.5 h: 97.9 ng/g
[4]; 1 mg/kg, Concentration Brain, Compound A 1 mg/kg PO, 2 hr
  concentration at 2 h: 70.2 ng/g
[4]; 1 mg/kg, Concentration Plasma, Compound A 1 mg/kg PO single dose, tissue collection 0.5 hr
  concentration at 0.5 h: 130 nM
[4]; 1 mg/kg, Concentration Plasma, Compound A 1 mg/kg PO single dose, tissue collection 2 hr
  concentration at 2 h: 100 nM
[4]; 1 mg/kg, Concentration Plasma, Compound A 1 mg/kg PO, 0.5 hr
  concentration at 0.5 h: 48.9 ng/mL
[4]; 1 mg/kg, Concentration Plasma, Compound A 1 mg/kg PO, 2 hr
  concentration at 2 h: 35.8 ng/mL
[4]; 2 mg/kg, Concentration Brain, Compound A 2 mg/kg PO single dose, tissue collection 0.5 hr
  concentration at 0.5 h: 360 nM
[4]; 2 mg/kg, Concentration Brain, Compound A 2 mg/kg PO single dose, tissue collection 2 hr
  concentration at 2 h: 210 nM
[4]; 2 mg/kg, Concentration Brain, Compound A 2 mg/kg PO, 0.5 hr
  concentration at 0.5 h: 132 ng/g
[4]; 2 mg/kg, Concentration Brain, Compound A 2 mg/kg PO, 2 hr
  concentration at 2 h: 75.8 ng/g
[4]; 2 mg/kg, Concentration Plasma, Compound A 2 mg/kg PO single dose, tissue collection 0.5 hr
  concentration at 0.5 h: 220 nM
[4]; 2 mg/kg, Concentration Plasma, Compound A 2 mg/kg PO single dose, tissue collection 2 hr
  concentration at 2 h: 130 nM
[4]; 2 mg/kg, Concentration Plasma, Compound A 2 mg/kg PO, 0.5 hr
  concentration at 0.5 h: 80.7 ng/mL
[4]; 2 mg/kg, Concentration Plasma, Compound A 2 mg/kg PO, 2 hr
  concentration at 2 h: 46.7 ng/mL
[4]; 4 mg/kg, Concentration Brain, Compound A 4 mg/kg PO single dose, tissue collection 0.5 hr
  concentration at 0.5 h: 640 nM
[4]; 4 mg/kg, Concentration Brain, Compound A 4 mg/kg PO single dose, tissue collection 2 hr
  concentration at 2 h: 360 nM
[4]; 4 mg/kg, Concentration Brain, Compound A 4 mg/kg PO, 0.5 hr
  concentration at 0.5 h: 235 ng/g
[4]; 4 mg/kg, Concentration Brain, Compound A 4 mg/kg PO, 2 hr
  concentration at 2 h: 131 ng/g
[4]; 4 mg/kg, Concentration Plasma, Compound A 4 mg/kg PO single dose, tissue collection 0.5 hr
  concentration at 0.5 h: 420 nM
[4]; 4 mg/kg, Concentration Plasma, Compound A 4 mg/kg PO single dose, tissue collection 2 hr
  concentration at 2 h: 230 nM
